Test: gradient 5% acetonitrile 3 min, to 50% in 2 min, to 85% in 15 min, held 3 min, 100 µL/min
Details: column: Zorbax Extend-C18 2.1 x 50 mm; eluents: water / acetonitrile, 0.1% formic acid
Summary of the method: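 Mixtures of ~100 pure standards were chromatographed on a Zorbax Extend-C18 column (2.1 × 50 mm, 1.8 μm) at 100 μL/min using water and acetonitrile, each with 0.1% formic acid. Detection used a quadrupole time-of-flight mass spectrometer in positive and negative ionization mode, and data collection spanned 3 months. Retention time was obtained from adduct peaks picked computationally and each checked manually.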

Structure (SMILES)	RP-LC retention time
CCOc1ccc(-c2csc3c(=O)n(Cc4cccc(Br)c4)cnc23)cc1OCC	1210 s
COc1ccc(CCN(C)CCc2ccc(OC)c(OC)c2)cc1OC	668 s
O=C(c1cc(Cc2n[nH]c(=O)c3ccccc23)ccc1F)N1CCN(C(=O)C2CC2)CC1	717 s
CC(=O)Nc1nsc(N2CCC(C(=O)NCc3cc(F)cc(F)c3)CC2)n1	661 s
O=C(O)c1cccc(Nc2c(-c3ccc(F)cc3)nc3cnccn23)c1	702 s
O=C(Cn1ccn2nc(-c3ccc(F)cc3)c(CO)c2c1=O)Nc1ccc(Cl)cc1	880 s
Cc1ncc2c(n1)C[C@@H]1CC[C@H]2N1C(=O)Nc1ccccc1F	638 s
CCOc1ccc(NC(=O)N2CCC3(C2)C(=O)Nc2ccccc23)cc1 (stereo not drawn)	720 s
O=C(CCc1c(-c2ccc(Br)cc2)nc2ccccn12)NCCCc1ccccc1	722 s
COC(=O)c1ccc(CNC2CCN(c3ccc(C(=O)NC4CC4)cn3)C2)cc1 (stereo not drawn)	552 s
Cc1nnc(-c2nnc(NCc3cccc(F)c3)c3ccccc23)o1	826 s
Cc1ccc2c(Nc3ccc(C)c(Cl)c3)c(C(=O)N3CCOCC3)cnc2n1	610 s
Cc1ccc(NS(=O)(=O)c2cc3n(c2)CCN(CC(C)C)C3=O)c(C)c1	841 s
O=C(Cc1c[nH]c2ncccc12)NCC1CCCCC1	644 s
Cc1ccc(NC(=O)N2CCN(c3cc(C)nc(N4CCOCC4)n3)CC2)c(C)c1	666 s
O=C(COc1ncccn1)N1CCN(c2ncccn2)CC1	579 s
O=C(CN1CCN(Cc2cccc(Cl)c2)C1=O)NCc1ccc(N2CCCC2)cc1	854 s
O=S(=O)(c1cccn2c(SCc3cccc(Cl)c3)nnc12)N1CCCC1	860 s
Cc1cc(C(=O)Nc2nnc(-c3csc(C)n3)o2)c(C)o1	599 s
Cc1ccc(NC(=O)C2CCc3sc(C(=O)N4CCOCC4)cc3C2)cc1C (stereo not drawn)	570 s
O=C1COc2ccc(Cl)cc2N1Cc1nc(-c2ccc(OC(F)(F)F)cc2)no1	1210 s
CCOc1ccc(S(=O)(=O)N2CCCN(c3ccc(=O)n(-c4ccccc4)n3)CC2)cc1	892 s

Structure (SMILES)	RP-LC retention time
CC(C)NC(=O)c1cc2c(=O)oc3ccccc3c2n1C	760 s
CCC(=O)Nc1ccc(-n2cnc(C(=O)N3CCN(c4ccc(C)cc4C)CC3)c2)nc1	865 s
Cc1ccccc1NC(=O)C(C)n1nc(C)c2nn(-c3ccccc3)c(-n3cccc3)c2c1=O (stereo not drawn)	1090 s
Cc1nc(-c2cc(S(=O)(=O)Nc3ccc(Br)cc3F)c(C)s2)cs1	1070 s
Cc1ccccc1S(=O)(=O)N1[C@H]2CC[C@@H]1c1cnc(-c3ccc(F)cc3)nc1C2	1210 s
Cc1noc(-c2ccc(-n3cnc(C(=O)NC4CCCCCC4)c3)nc2)n1	896 s
CCOc1ccccc1NS(=O)(=O)c1cc(-c2nc(C(C)(C)C)cs2)cs1	1310 s
COC(=O)c1cn(CC(=O)NCc2cc3c(cc2OC)OCCCO3)c2ccccc12	897 s
c1cncc(-c2noc(CCC3CCCN(C4CCCCC4)C3)n2)c1 (stereo not drawn)	624 s
COc1ccc(-c2cc(C(=O)N3CCCC3)c(C)n2C)cc1	589 s
Cc1cccc(-c2noc(-c3nn(CC(=O)NCc4cccs4)c4ccccc34)n2)c1	1140 s
Cc1ccc(NC(=O)Cn2nc3c(N4CCCCCC4)nccn3c2=O)c(C)c1	714 s
COCC(=O)N1CCCn2cc(-c3cccc(C#N)c3)nc21	675 s
COc1ccc(CNC(=O)C2CCCN(c3ccc(=O)n(-c4ccc(C)c(Cl)c4)n3)C2)cc1OC (stereo not drawn)	837 s
O=C(Cc1c(Sc2ccc(F)cc2)[nH]c2ccccc12)N1CCN(c2ccccn2)CC1	714 s
Cc1cc2nc(NCCCO)n(CC(=O)c3cc(C(C)(C)C)c(O)c(C(C)(C)C)c3)c2cc1C	1030 s
O=C(Nc1cc(F)cc(F)c1)c1c(O)c2cccnc2n(-c2cccc(F)c2)c1=O	1310 s
O=C(c1ccsc1)N1CCN(c2cc(-c3cccnc3)[nH]n2)CC1	584 s
Cc1nc(N2CCC(C(=O)Nc3ccc(F)cc3F)CC2)c2c(C)c(C)oc2n1	874 s
O=C(Nc1ccc(F)cc1F)C1CCCN(S(=O)(=O)c2c[nH]c(C(=O)N3CCCCCC3)c2)C1 (stereo not drawn)	897 s
Cc1cc(N2CCCC2)nc(N2CCN(S(=O)(=O)c3ccc(Br)cc3)CC2)n1	820 s
COc1ccc(CNS(=O)(=O)c2cc3n(c2)CCCNC3=O)cc1	641 s

Structure (SMILES)	RP-LC retention time
CCN1C(=O)Cc2cc(C(=O)NC3CCCCCC3)ccc21	797 s
COc1ccc(N2CCN(c3cc(SCC(=O)Nc4ccc(C#N)cc4)ncn3)CC2)cc1	890 s
Cc1ccc(-n2nc(N3CCN(C(=O)Nc4cccc(C)c4)CC3)ccc2=O)cc1	820 s
CCCNC(=O)CCC1CCN(S(=O)(=O)c2ccccc2)CC1	784 s
Clc1cc(Cl)cc(-c2ccc(CNCc3ccccn3)o2)c1	742 s
CCCNC(=O)C1CCCN(c2ccc(SCC(=O)Nc3ccc(F)c(F)c3)nn2)C1 (stereo not drawn)	662 s
O=C(Nc1ccc2c(c1)OCCO2)N1CCC(Cc2nncn2-c2ccccc2)CC1	706 s
O=C(N[C@H]1C[C@@H]2C[C@H]1CN2C(=O)c1cccc(C(F)(F)F)c1)c1ccccc1	809 s
CSc1ccc(CNC(=O)C2CCCN(c3cc(=O)n(C)c(=O)n3C)C2)cc1 (stereo not drawn)	704 s
CCN(CC)C(=O)Oc1ccc(C(=O)Nc2cccc3ccccc23)cc1	896 s
COc1cc(NC(=O)Cn2ccc3sc(C)cc3c2=O)cc(OC)c1	795 s
Cc1oc2c(c1C(=O)NCC1CCN(Cc3ccc(Cl)cc3)CC1)C1=NCCN1C=N2	567 s
Cc1ccccc1CNC(=O)C1(C)CCCN(C(=O)Nc2cccc(Cl)c2)C1 (stereo not drawn)	1030 s
CCc1cc(=O)n(CC(=O)N2CCN(c3ccc(F)cc3)CC2)c(N2CCOCC2)n1	720 s
CCN1c2ccc(F)cc2C(=O)NC12CCN(C(=O)c1cc(OC)cc(OC)c1)CC2	782 s
CCOC(=O)c1nc(Nc2cc(Cl)ccc2C)c2ccccc2n1	929 s
Cc1sc(C)c(S(=O)(=O)N2CCN(c3ccccc3F)CC2)c1-c1cc(C(F)(F)F)on1	1330 s
COc1ccc(C(=O)N2CCN(c3cc(-c4cccs4)[nH]n3)CC2)cc1	749 s
COC(=O)CSc1nnc2c(S(=O)(=O)N3CCN(c4ccc(F)cc4)CC3)cccn12	825 s
Cc1ccc(CNC(=O)C2(C)CCCN(C(=O)Nc3ccc(C)cc3C)C2)cc1 (stereo not drawn)	947 s
CCCCNC(=O)Cn1c(N)nc(CC)cc1=O	579 s
O=C(NC1CC1)c1ccc(N2CCC(NCc3ccc(F)cc3)C2)nc1 (stereo not drawn)	553 s

Structure (SMILES)	RP-LC retention time
COCCOC1CN(C2CCN(Cc3cccc(C)c3)CC2)C12CCCCC2 (stereo not drawn)	573 s
CCn1cc(CC(=O)NCc2cc(F)cc(F)c2)c2cccnc21	739 s
CCCCN1CCN(C(=O)c2nnc(-c3ccc(S(=O)(=O)N(C)C)cc3)o2)CC1	620 s
Cc1ccsc1CN1CCC(Cn2c(C)cnc2C)CC1	521 s
CCN1CCC2(CC1)OC(=O)C(C)=C2C(=O)NCCCN1CCC(Cc2ccccc2)CC1	583 s
Cc1cc(C(=O)NCc2cccc(F)c2)nc2cc(-c3cccs3)nn12	1090 s
Cc1ccc(C(=O)N2CCC(COc3ccc(C(=O)NC(C)C)cc3)CC2)s1	888 s
COc1cccc(-c2nc(NCc3cccnc3)ncc2C(=O)O)c1	576 s
Cc1ccc(CNC(=O)N2CCN(CCn3c(C(F)(F)F)nc4cccnc43)CC2)cc1	661 s
COc1ccc(-c2ncc(C(=O)Nc3ccc(OC)c(OC)c3)c(-c3ccncc3)n2)cc1	769 s
Cc1cc2[nH]c(C(=O)Nc3ccc(C)c(F)c3)c(CN3CCOCC3)c2s1	738 s
CCOc1ccc(NC(=O)N2CCN(c3nc4cccnc4s3)CC2)cc1	752 s
O=C(c1ccccn1)N1CCC(n2c(C3CCCC3)nc3cccnc32)C1 (stereo not drawn)	620 s
CN(c1nccn2c(=O)n(CC(=O)Nc3ccc4c(c3)OCO4)nc12)C1CCCCC1	716 s
CCOc1cccc(Cn2c(=O)c3sccc3n(Cc3nc(-c4ccc(C)cc4)no3)c2=O)c1	1120 s
Cc1cccc(Nc2c(-c3ccccc3)nc3cnccn23)c1C	981 s
CC(=O)N1CCc2cc(N3CC(C(=O)NCc4ccc(F)cc4)CC3=O)ccc21 (stereo not drawn)	740 s
O=c1n(Cc2cccc(C(F)(F)F)c2)nc2c(S(=O)(=O)N3CCCC3)cccn12	885 s
O=C(Nc1cccc(-c2cn3cccnc3n2)c1)c1cccc([N+](=O)[O-])c1	687 s
CN1CCN(CCCNC(=O)c2ccc(CS(=O)c3cccc(Cl)c3)o2)CC1 (stereo not drawn)	527 s
O=S(=O)(c1cc(-c2noc(C3CCCC3)n2)cs1)N(Cc1cccs1)C1CCCC1	933 s
COc1ccc(OC)c(NC(=O)NC(C(=O)N2CCc3ccccc32)C(C)C)c1 (stereo not drawn)	984 s
